# Measured values reported in patent US12528761B2, “Thyromimetics” (Autobahn Therapeutics, Inc., priority 2020, dated 2026).
# Target: T1, recombinant human FAAH (rhFAAH) (Homo sapiens, UniProt O00519)
# T1 construct: purchased Cayman Chemical (Ann Arbor, MI, USA)
# T1 sequence (O00519 1-579): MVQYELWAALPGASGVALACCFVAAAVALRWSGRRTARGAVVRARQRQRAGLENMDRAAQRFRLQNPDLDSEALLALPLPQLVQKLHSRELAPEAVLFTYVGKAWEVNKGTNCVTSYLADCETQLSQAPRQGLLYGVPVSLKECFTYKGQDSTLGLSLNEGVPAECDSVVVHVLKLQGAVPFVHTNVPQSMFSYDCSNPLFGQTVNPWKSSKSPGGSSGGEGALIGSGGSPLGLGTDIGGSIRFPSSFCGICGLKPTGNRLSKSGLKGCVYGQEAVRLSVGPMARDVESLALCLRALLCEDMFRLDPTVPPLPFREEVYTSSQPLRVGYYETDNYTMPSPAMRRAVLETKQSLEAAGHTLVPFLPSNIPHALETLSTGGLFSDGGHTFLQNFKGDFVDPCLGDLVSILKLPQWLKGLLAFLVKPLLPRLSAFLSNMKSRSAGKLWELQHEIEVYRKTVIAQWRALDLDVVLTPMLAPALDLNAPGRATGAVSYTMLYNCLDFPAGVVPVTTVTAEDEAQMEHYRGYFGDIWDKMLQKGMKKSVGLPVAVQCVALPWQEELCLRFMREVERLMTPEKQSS
# Test: FAAH substrate evaluation (formation of acid metabolite, LC-MS/MS)
# Format: biochemical
# Set-up: key: A: ke is equal to or less than 1.0; B: ke is greater than 1.0 and less than or equal to 2.5; C: ke is greater than 2.5; NC: no conversion
# Conditions: 0.5 ng/μL rhFAAH, 1 μM test compound, pH 8.0, room temperature, 0-60 minutes
# Method: Purified recombinant human FAAH (rhFAAH) was purchased from Cayman Chemical (Ann Arbor, MI, USA). The total volume for each incubation was 400 μL containing a final 0.5 ng/μL rhFAAH, 1 μM test compound, 1.25% ethanol or 1 μM PF-3845 (FAAH inhibitor), and 0.1% bovine serum albumin in Tris-EDTA buffer at pH 8.0). The positive control was LL-341001. The incubation was conducted at the room temperature. At 0, 5, 15, 30 and 60 minutes, an aliquot of 30 μL reaction mixtures was removed and mixed with 300 μL acetonitrile containing 5 ng/mL terfenadine and 10 ng/mL tolbutamide as internal standards to quench the reaction. The resulting mixture was centrifuged at 4000 rpm, 4° C. for 15 minutes, and 100 μL supernatant was ready for LC-MS/MS analysis to measure the formation of acid metabolite.
# Acquity Ultra Performance LC system from Waters was used for sample analysis. The chromatography was performed on a reverse phase Kinetex 2.6 μm C18 column, 2.1×30 mm, 100 Å. The mobile phase A comprised of 0.1% formic acid in water and mobile phase B comprised of 0.1% formic acid in acetonitrile with a 2-min run time at the flow rate of 0.8 mL/min for the acid metabolite from positive control or a 1.5 min run time at the flow rate of 0.9 mL/min for the acid metabolite of test compounds. The mass spectrometer (API-5500 and API Q Trap 4000 Applied Biosystems/MDS SCIEX Instruments, Framingham, MA, USA) was operated under ESI positive or negative ion MRM mode.
# The formation of acid metabolite was monitored and quantified using one calibration point of 1 μM. The observed rate constant (ke) for the acid metabolite formation was calculated by plotting the metabolite concentration versus time of incubation with the slope being ke and is shown in Table 4.
row,SMILES,"ke, observed rate constant for the acid metabolite formation"
1,"CC(C)c1c(O)ccc(Cc2c(Cl)cc(NCC(=O)Nc3cccnc3)c(F)c2Cl)c1F [Compound 160, 2-((3,5-dichloro-2-fluoro-4-(2-fluoro-4-hydroxy-3-isopropylbenzyl)phenyl)amino)-N-(pyridin-3-yl)acetamide]",B (ke is greater than 1.0 and less than or equal to 2.5)
2,"CC(C)c1c(O)ccc(Cc2c(Cl)cc(NCC(=O)N[C@@H]3C[C@@H]3F)c(F)c2Cl)c1F [Compound 156, 2-((3,5-dichloro-2-fluoro-4-(2-fluoro-4-hydroxy-3-isopropylbenzyl)phenyl)amino)-N-((1R,2S)-2-fluorocyclopropyl)acetamide]",A (ke is equal to or less than 1.0)
3,"Cc1cc(CSCC(=O)Nc2cccnn2)cc(Cl)c1Cc1ccc(O)c(C(C)C)c1 [Compound 230, 2-((3-chloro-4-(4-hydroxy-3-isopropylbenzyl)-5-methylbenzyl)thio)-N-(pyridazin-3-yl)acetamide]",B (ke is greater than 1.0 and less than or equal to 2.5)
4,"CNC(=O)Cc1cc(Cl)c(Cc2ccc(O)c(C(C)C)c2F)c(Cl)c1 [Compound 33, 2-(3,5-dichloro-4-(2-fluoro-4-hydroxy-3-isopropylbenzyl)phenyl)-N-methylacetamide]",NC
5,"CC(C)c1c(O)ccc(Cc2c(Cl)cc(CC(=O)N(C)C)cc2Cl)c1F [Compound 34, 2-(3,5-dichloro-4-(2-fluoro-4-hydroxy-3-isopropylbenzyl)phenyl)-N,N-dimethylacetamide]",NC
6,"CNC(=O)CSc1cc(C)c(Cc2ccc(O)c(C(C)C)c2)c(Cl)c1F [Compound 218, 2-((3-chloro-2-fluoro-4-(4-hydroxy-3-isopropylbenzyl)-5-methylphenyl)thio)-N-methylacetamide]",B (ke is greater than 1.0 and less than or equal to 2.5)
7,"CNC(=O)CSc1cc(C)c(Cc2ccc(O)c(C(C)C)c2)c(Cl)c1 [Compound 242, 2-((3-chloro-4-(4-hydroxy-3-isopropylbenzyl)-5-methylphenyl)thio)-N-methylacetamide]",B (ke is greater than 1.0 and less than or equal to 2.5)
8,"CC(C)c1c(O)ccc(Cc2c(Cl)cc(NCC(=O)Nc3ccnnc3)c(F)c2Cl)c1F [Compound 162, 2-((3,5-dichloro-2-fluoro-4-(2-fluoro-4-hydroxy-3-isopropylbenzyl)phenyl)amino)-N-(pyridazin-4-yl)acetamide]",C (ke is greater than 2.5)
9,"CNC(=O)CSc1cc(Cl)c(Cc2ccc(O)c(C(C)C)c2)c(Cl)c1 [Compound 195, 2-((3,5-dichloro-4-(4-hydroxy-3-isopropylbenzyl)phenyl)thio)-N-methylacetamide]",B (ke is greater than 1.0 and less than or equal to 2.5)
10,"CC(C)c1c(O)ccc(Cc2c(Cl)cc(NCC(=O)NCCCF)c(F)c2Cl)c1F [Compound 155, 2-((3,5-dichloro-2-fluoro-4-(2-fluoro-4-hydroxy-3-isopropylbenzyl)phenyl)amino)-N-(3-fluoropropyl)acetamide]",A (ke is equal to or less than 1.0)
11,"CNC(=O)CCc1cc(C)c(Cc2ccc(O)c(C(C)C)c2F)c(Cl)c1 [Compound 236, 3-(3-chloro-4-(2-fluoro-4-hydroxy-3-isopropylbenzyl)-5-methylphenyl)-N-methylpropanamide]",B (ke is greater than 1.0 and less than or equal to 2.5)
12,"CCNC(=O)CNc1cc(Cl)c(Cc2ccc(O)c(C(C)C)c2F)c(Cl)c1F [Compound 165, 2-((3,5-dichloro-2-fluoro-4-(2-fluoro-4-hydroxy-3-isopropylbenzyl)phenyl)amino)-N-ethylacetamide]",A (ke is equal to or less than 1.0)
13,"COc1ccc(NC(=O)CNc2cc(Cl)c(Cc3ccc(O)c(C(C)C)c3F)c(Cl)c2F)nn1 [Compound 159, 2-((3,5-dichloro-2-fluoro-4-(2-fluoro-4-hydroxy-3-isopropylbenzyl)phenyl)amino)-N-(6-methoxypyridazin-3-yl)acetamide]",B (ke is greater than 1.0 and less than or equal to 2.5)

# The remaining lines, values ahead:
row,"ke, observed rate constant for the acid metabolite formation",SMILES
1,NC,"CNC(=O)Cc1cc(Cl)c(Cc2ccc(O)c(C(C)C)c2)c(Cl)c1 [Compound 7, 2-(3,5-dichloro-4-(4-hydroxy-3-isopropylbenzyl)phenyl)-N-methylacetamide]"
2,A (ke is equal to or less than 1.0),"CC(C)c1cc(Cc2c(Cl)cc(SCC(=O)N3CCC3)cc2Cl)ccc1O [Compound 183, 1-(azetidin-1-yl)-2-((3,5-dichloro-4-(4-hydroxy-3-isopropylbenzyl)phenyl)thio)ethan-1-one]"
3,C (ke is greater than 2.5),"Cc1cc(CSCC(N)=O)cc(Cl)c1Cc1ccc(O)c(C(C)C)c1 [Compound 232, 2-((3-chloro-4-(4-hydroxy-3-isopropylbenzyl)-5-methylbenzyl)thio)acetamide]"
4,C (ke is greater than 2.5),"CC(C)c1cc(Cc2c(Cl)cc(SCC(N)=O)cc2Cl)ccc1O [Compound 179, 2-((3,5-dichloro-4-(4-hydroxy-3-isopropylbenzyl)phenyl)thio)acetamide]"
5,C (ke is greater than 2.5),"CNC(=O)CSc1cc(C)c(Cc2ccc(O)c(C(C)C)c2F)c(Cl)c1 [Compound 233, 2-((3-chloro-4-(2-fluoro-4-hydroxy-3-isopropylbenzyl)-5-methylphenyl)thio)-N-methylacetamide]"
6,A (ke is equal to or less than 1.0),"CNC(=O)CNc1cc(Cl)c(Cc2ccc(O)c(C(C)C)c2)c(Cl)c1F [Compound 76, 2-((3,5-dichloro-2-fluoro-4-(4-hydroxy-3-isopropylbenzyl)phenyl)amino)-N-methylacetamide]"
7,A (ke is equal to or less than 1.0),"CNC(=O)CCc1cc(Cl)c(Cc2ccc(O)c(C(C)C)c2)c(Cl)c1F [Compound 66, 3-(3,5-dichloro-2-fluoro-4-(4-hydroxy-3-isopropylbenzyl)phenyl)-N-methylpropanamide]"
8,NC,"CC(C)c1cc(Cc2c(Cl)cc(SCC(=O)NC34CC(C3)C4)cc2Cl)ccc1O [Compound 178, N-(bicyclo[1.1.1]pentan-1-yl)-2-((3,5-dichloro-4-(4-hydroxy-3-isopropylbenzyl)phenyl)thio)acetamide]"
9,A (ke is equal to or less than 1.0),"CCNC(=O)CSc1cc(Cl)c(Cc2ccc(O)c(C(C)C)c2)c(Cl)c1 [Compound 186, 2-((3,5-dichloro-4-(4-hydroxy-3-isopropylbenzyl)phenyl)thio)-N-ethylacetamide]"
10,C (ke is greater than 2.5),"CNC(=O)CSCc1cc(Cl)c(Cc2ccc(O)c(C(C)C)c2F)c(Cl)c1 [Compound 147, 2-((3,5-dichloro-4-(2-fluoro-4-hydroxy-3-isopropylbenzyl)benzyl)thio)-N-methylacetamide]"
11,A (ke is equal to or less than 1.0),"CC(C)c1cc(Cc2c(Cl)cc(SCC(=O)NCC3CC3)cc2Cl)ccc1O [Compound 181, N-(cyclopropylmethyl)-2-((3,5-dichloro-4-(4-hydroxy-3-isopropylbenzyl)phenyl)thio)acetamide]"
12,C (ke is greater than 2.5),"CC(C)c1cc(Cc2c(Cl)cc(SCC(=O)Nc3ccncc3)cc2Cl)ccc1O [Compound 172, 2-((3,5-dichloro-4-(4-hydroxy-3-isopropylbenzyl)phenyl)thio)-N-(pyridin-4-yl)acetamide]"
